pIC50: −log10 of the molar value.

T1 sequence (P09619 33-1106): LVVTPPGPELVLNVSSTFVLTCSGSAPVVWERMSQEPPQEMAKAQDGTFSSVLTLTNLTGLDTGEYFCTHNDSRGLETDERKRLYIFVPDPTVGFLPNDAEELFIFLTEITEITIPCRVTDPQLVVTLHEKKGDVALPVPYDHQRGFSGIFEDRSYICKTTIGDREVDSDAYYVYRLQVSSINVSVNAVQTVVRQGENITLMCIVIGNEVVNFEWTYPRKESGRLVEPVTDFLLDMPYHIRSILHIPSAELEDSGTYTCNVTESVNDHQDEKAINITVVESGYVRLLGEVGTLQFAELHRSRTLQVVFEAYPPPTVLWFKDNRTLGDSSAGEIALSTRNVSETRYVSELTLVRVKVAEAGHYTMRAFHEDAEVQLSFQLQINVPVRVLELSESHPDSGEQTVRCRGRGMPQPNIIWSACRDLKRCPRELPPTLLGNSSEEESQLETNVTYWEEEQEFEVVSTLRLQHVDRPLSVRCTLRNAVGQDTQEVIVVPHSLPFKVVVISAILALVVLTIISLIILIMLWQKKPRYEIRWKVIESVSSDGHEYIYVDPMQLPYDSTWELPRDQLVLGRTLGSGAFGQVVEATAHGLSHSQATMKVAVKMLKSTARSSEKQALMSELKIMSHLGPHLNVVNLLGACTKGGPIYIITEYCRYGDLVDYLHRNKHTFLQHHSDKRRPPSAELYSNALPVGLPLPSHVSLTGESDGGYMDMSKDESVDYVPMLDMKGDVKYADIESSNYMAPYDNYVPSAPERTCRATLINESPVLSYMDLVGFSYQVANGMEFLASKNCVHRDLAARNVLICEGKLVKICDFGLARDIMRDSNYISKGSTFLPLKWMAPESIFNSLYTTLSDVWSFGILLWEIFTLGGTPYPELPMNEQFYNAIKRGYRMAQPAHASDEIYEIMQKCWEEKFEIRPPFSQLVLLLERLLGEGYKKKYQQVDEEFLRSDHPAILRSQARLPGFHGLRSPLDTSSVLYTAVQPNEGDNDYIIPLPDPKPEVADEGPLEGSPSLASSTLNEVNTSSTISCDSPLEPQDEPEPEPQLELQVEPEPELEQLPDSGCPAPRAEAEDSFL

The test addresses T1, PDGFR-β (Homo sapiens, UniProt P09619).
T1 construct: host or cells: NIH 3T3
Briefly: Biochemical PDGFR assay (ELISA, PDGFR-β expressing NIH 3T3 cell lysate). To be noted: read-out: bio PDGF IC50. Summed up:
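Phosphorylation was read by ELISA (anti-phosphotyrosine serum, peroxidase secondary, ABTS at 410 nm) after a 30 min room-temperature reaction with 20 μM ATP, EDTA-stopped. Kinase was lysate-derived PDGFR-β (NIH 3T3) immobilised via 28D4C10 antibody, compound added 30 min before ATP.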
On the technique in general: In an ELISA, binding on a coated surface is turned into a signal by an enzyme label.
In general, pIC50 refers to the IC50 on a negative log10 scale, so that one unit is a factor of ten. Regarding `COc1ccc(C=C2C(=O)Nc3cc(NC(C)=O)ccc32)cc1-c1cccc(NC(C)=O)c1` (mixture of isomers) [Example 63, N-[3-(3′-Acetylamino-6-methoxybiphenyl-3-ylmethylene)-2-oxo-2,3-dihydro-1H-indol-6-yl]-acetamide], the pIC50 was less than 4.00. As for `CC1(C)CCc2cc(C=C3C(=O)Nc4ccc(Br)cc43)ccc2O1` (racemic) [Example 34, 5-Bromo-3-(2,2-dimethylchroman-6-ylmethylene)-1,3-dihydroindol-2-one], the negative-log IC50 (pIC50) is 4.25. The figure for `COc1ccc(/C=C2/C(=O)Nc3ccc(Br)cc32)cc1-c1ccccc1` [Example 13, 5-Bromo-3-(6-methoxybiphenyl-3-ylmethylene)-1,3-dihydroindol-2-one] is less than 4.00; for `CC1(C)CCc2cc(/C=C3/C(=O)Nc4ccc(Cl)cc43)ccc2O1` [Example 15, 5-Chloro-3-(2,2-dimethyl-chroman-6-ylmethylene)-1,3-dihydroindol-2-one] it is 4.58; for `CC(=O)Nc1ccc2c(c1)NC(=O)/C2=C/c1ccc(OCCN2CCOCC2)c(C2CCCCC2)c1` [Example 16, N-{3-[3-Cyclohexyl-4-(2-morpholin-4-ylethoxy)-benzylidene]-2-oxo-2,3-dihydro-1H-indol-6-yl}-acetamide] it is less than 4.00. To `COc1ccc(/C=C2/C(=O)Nc3cc(NC(C)=O)ccc32)cc1-c1ccsc1` [Example 18, N-[3-(4-Methoxy-3-thiophene-3-ylbenzylidene)-2-oxo-2,3-dihydro-1H-indol-6-yl]-acetamide] belongs 4.06; to `CC(C)c1cc(/C=C2/C(=O)Nc3ccc(Cl)cc32)cc(C(C)C)c1OCCN1CCOCC1` [Example 24, 5-chloro-3-[3,5-diisopropyl-4-(2-morpholin-4-ylethoxy)-benzylidene]-1,3-dihydroindol-2-one], less than 4.00; to `COc1cc(C)c(C=C2C(=O)Nc3cc(NC(C)=O)ccc32)cc1C(C)C` [Example 27, N-[3-(5-Isopropyl-4-methoxy-2-methyl-benzylidene)-2-oxo-2,3-dihydro-1H-indol-6-yl]-acetamide], less than 4.00. As for `COc1ccc(C=C2C(=O)Nc3ccccc32)cc1-c1cccc(NC(C)=O)c1` [Example 29, N-[2′-Methoxy-5′-(2-oxo-1,2-dihydroindol-3-ylidenemethyl)-biphenyl-3-yl]-acetamide], the pIC50 was less than 4.00. To `COc1cc(C)c(/C=C2/C(=O)Nc3ccc(F)cc32)cc1C(C)C` [Example 30, 5-Fluoro-3-(5-isopropyl-4-methoxy-2-methyl-benzylidene)-1,3-dihydroindol-2-one] belongs less than 4.00; to `COc1ccc(/C=C2/C(=O)Nc3cc(NC(C)=O)ccc32)cc1-c1cccs1` [Example 31, N-[3-(4-Methoxy-3-thiophen-2-ylbenzylidene)-2-oxo-2,3-dihydro-1H-indol-6-yl]-acetamide], less than 4.00; to `CC(=O)Nc1ccc2c(c1)NC(=O)/C2=C\c1ccc2c(c1)CCC(C)(C)O2` [Example 33, N-[3-(2,2-Dimethylchroman-6-ylmethylene)-2-oxo-2,3-dihydro-1H-indol-6-yl]-acetamide], less than 4.00.

Turning to `COc1ccc(/C=C2/C(=O)Nc3ccccc32)cc1-c1ccsc1` [Example 35, 3-(4-Methoxy-3-thiophen-3-ylbenzylidene)-1,3-dihydroindol-2-one], the negative logarithm of the IC50 (pIC50) is less than 4.00. In the case of `COc1cc(C)c(/C=C2/C(=O)Nc3ccc(Br)cc32)cc1C(C)C` [Example 36, 5-Bromo-3-(5-isopropyl-4-methoxy-2-methyl-benzylidene)-1,3-dihydroindol-2-one], the negative-log IC50 (pIC50) was less than 4.00. The figure for `COc1ccc(/C=C2/C(=O)Nc3ccc(F)cc32)cc1-c1ccccc1` [Example 37, 5-Fluoro-3-(6-methoxybiphenyl-3-ylmethylene)-1,3-dihydroindol-2-one] is less than 4.00. The figure for `COc1cc(/C=C2/C(=O)Nc3ccccc32)c(-c2cccs2)cc1OC` [Example 39, 3-(4,5-Dimethoxy-2-thiophen-2-ylbenzylidene)-1,3-dihydroindol-2-one] is less than 4.00. To `CC(=O)Nc1ccc2c(c1)NC(=O)/C2=C/c1ccc(OCCN2CCOCC2)c(-c2cccs2)c1` [Example 40, N-{3-[4-(2-Morpholin-4-ylethoxy)-3-thiophen-2-ylbenzylidene]-2-oxo-2,3-dihydro-1H-indol-6-yl}-acetamide] belongs less than 4.00; to `Cc1cccc2c1/C(=C/c1ccc3c(c1)CCC(C)(C)O3)C(=O)N2` [Example 41, 3-(2,2-Dimethylchroman-6-ylmethylene)-4-methyl-1,3-dihydroindol-2-one], less than 4.00; to `O=C1Nc2ccc(F)cc2/C1=C\c1ccc2c(c1)CCO2` [Example 42, 3-(2,3-Dihydrobenzofuran-5-ylmethylene)-5-fluoro-1,3-dihydroindol-2-one], 4.37.

Consider `COc1ccc(/C=C2/C(=O)Nc3ccc(F)cc32)cc1C1CCCCC1` [Example 43, 3-(3-Cyclohexyl-4-methoxybenzylidene)-5-fluoro-1,3-dihydroindol-2-one], for which the pIC50 is 4.96. With `COc1ccc(/C=C2/C(=O)Nc3ccc(F)cc32)cc1C(C)C` [Example 44, 5-Fluoro-3-(3-isopropyl-4-methoxybenzylidene)-1,3-dihydroindol-2-one], the pIC50 was less than 4.00. The figure for `CCOc1cccc(-c2cc(C=C3C(=O)Nc4ccccc43)ccc2OC)c1` [Example 46, 3-(3′-Ethoxy-6-methoxybiphenyl-3-ylmethylene)-1,3-dihydroindol-2-one] is less than 4.00; for `COc1cc(C=C2C(=O)Nc3ccccc32)c(-c2ccccc2OC)cc1OC` [Example 49, 3-(4,5,2′-Trimethoxybiphenyl-2-ylmethylene)-1,3-dihydroindol-2-one] it is less than 4.00; for `CC(=O)Nc1ccc2c(c1)NC(=O)/C2=C/c1ccc(OCCN2CCOCC2)c(-c2ccsc2)c1` [Example 50, N-{3-[4-(2-Morpholin-4-ylethoxy)-3-thiophen-3-ylbenzylidene]-2-oxo-2,3-dihydro-1H-indol-6-yl}-acetamide] it is less than 4.00.

`CC(=O)Nc1ccc2c(c1)NC(=O)/C2=C/c1ccc(OCCN2CCOCC2)c(C(C)(C)C)c1` [Example 55, N-{3-[3-tert-Butyl-4-(2-morpholin-4-ylethoxy)-benzylidene]-2-oxo-2,3-dihydro-1H-indol-6-yl}-acetamide]: the negative logarithm of the IC50 (pIC50) is less than 4.00. To `CC(C)c1cc(/C=C2/C(=O)Nc3ccc(Br)cc32)cc(C(C)C)c1OCCN1CCOCC1` [Example 57, 5-Bromo-3-[3,5-diisopropyl-4-(2-morpholin-4-ylethoxy)benzylidene]-1,3-dihydroindol-2-one] belongs less than 4.00; to `CCOc1cccc(-c2cc(OC)c(OC)cc2/C=C2/C(=O)Nc3ccccc32)c1` [Example 58, 3-(3′-Ethoxy-4,5-dimethoxybiphenyl-2-ylmethylene)-1,3-dihydroindol-2-one], less than 4.00; to `COc1ccc(/C=C2/C(=O)Nc3ccc(Cl)cc32)cc1-c1cccs1` [Example 59, 5-chloro-3-(4-Methoxy-3-thiophen-2-ylbenzylidene)-1,3-dihydroindol-2-one], less than 4.00.

Turning to `COc1ccc(/C=C2/C(=O)Nc3ccc(Cl)cc32)cc1-c1cccnc1` [Example 60], the negative logarithm of the IC50 (pIC50) is 4.61.

The record behind these values is patent US6855730B2, “3-methylidenyl-2-indolinone modulators of protein kinase” (Sugen, Inc., priority 1998, dated 2005).
